Measured values as given in ChEMBL document CHEMBL3244029, “Synthesis and stereospecific antipsychotic activity of (-)-1-cyclopropylmethyl-4-(3-trifluoromethylthio-5H-dibenzo[a,d]cyclohepten-5-ylidene)piperidine” (J Med Chem, 1977).

Columns and labels:
Assay type in all cases: functional
Saimiri [1] = assay: Antipsychotic activity in squirrel monkey assessed as inhibition of conditioned avoidance response measured as maximum number of shocks possible per 30 mins interval at 1 mg/kg, po administered followed by saline 15 mins later measured after 1.5 to 2 hrs of dosing
Saimiri [2] = assay: Antipsychotic activity in squirrel monkey assessed as inhibition of conditioned avoidance response measured as maximum number of shocks possible per 30 mins interval at 1 mg/kg, po administered followed by saline 15 mins later measured after 1 to 1.5 hrs of dosing
Saimiri [3] = assay: Antipsychotic activity in squirrel monkey assessed as inhibition of conditioned avoidance response measured as maximum number of shocks possible per 30 mins interval at 1 mg/kg, po administered followed by saline 15 mins later measured after 0.5 to 1 hrs of dosing
Saimiri [4] = assay: Antipsychotic activity in squirrel monkey assessed as inhibition of conditioned avoidance response measured as maximum number of shocks possible per 30 mins interval at 1 mg/kg, po administered followed by saline 15 mins later measured after 0 to 0.5 hrs of dosing
Saimiri [5] = assay: Antipsychotic activity in squirrel monkey assessed as inhibition of conditioned avoidance response measured as maximum number of shocks possible per 30 mins interval at 1 mg/kg, po administered followed by saline 15 mins later measured after 2 to 2.5 hrs of dosing
Saimiri [6] = assay: Antipsychotic activity in squirrel monkey assessed as inhibition of conditioned avoidance response measured as maximum number of shocks possible per 30 mins interval at 1 mg/kg, po administered followed by saline 15 mins later measured after 2.5 to 3 hrs of dosing
Saimiri [7] = assay: Antipsychotic activity in squirrel monkey assessed as inhibition of conditioned avoidance response measured as maximum number of shocks possible per 30 mins interval at 1 mg/kg, po administered followed by saline 15 mins later measured after 3 to 3.5 hrs of dosing
Saimiri [8] = assay: Antipsychotic activity in squirrel monkey assessed as inhibition of conditioned avoidance response measured as maximum number of shocks possible per 30 mins interval at 1 mg/kg, po administered followed by saline 15 mins later measured after 3.5 to 4 hrs of dosing
Saimiri [9] = assay: Antipsychotic activity in squirrel monkey assessed as inhibition of conditioned avoidance response measured as maximum number of shocks possible per 30 mins interval at 1 mg/kg, po administered followed by saline 15 mins later measured after 4 to 4.5 hrs of dosing
Saimiri [10] = assay: Antipsychotic activity in po dosed squirrel monkey assessed as inhibition of conditioned avoidance response measured as maximum number of shocks
Rattus norvegicus = assay: Blockade of po dosed apomorphine-induced stereotyped behavior in Sprague-Dawley rat assessed as continuous sniffing, licking, gnawing, or biting
[11] = Saimiri, in Primates, po, read-out: ED50

Structure (SMILES)	%max (Saimiri [1]) [%]	%max (Saimiri [2]) [%]	%max (Saimiri [3]) [%]	%max (Saimiri [4]) [%]	%max (Saimiri [5]) [%]	%max (Saimiri [6]) [%]	%max (Saimiri [7]) [%]	%max (Saimiri [8]) [%]	%max (Saimiri [9]) [%]	ED50 (Saimiri [10]) [mg/kg]	ED50 (Saimiri [10]; [11]) [mg/kg]	ED50 (Rattus norvegicus) [mg/kg]
FC(F)(F)Sc1ccc2c(c1)C(=C1CCN(CC3CC3)CC1)c1ccccc1C=C2.O=P(O)(O)O	62	61.3	9.6	0	65	69	66.7	90	82	0.99	0.51	–
CSc1ccc2c(c1)N(CCC1CCCCN1C)c1ccccc1S2.Cl (centres undefined) [THIORIDAZINE HYDROCHLORIDE]	–	–	–	–	–	–	–	–	–	–	0.97	–
O=C(CCCN1CCC(O)(c2ccc(Cl)cc2)CC1)c1ccc(F)cc1 [HALOPERIDOL]	–	–	–	–	–	–	–	–	–	–	0.29	0.32
